Broadly, the Ki is the equilibrium dissociation constant of an inhibitor or competing ligand from its target. One may read the EC50 as the concentration needed to bring the measured effect to its halfway point.

The text below walks through data of patent US6720423B2, “Dihydrobenzofuran and dihydrobenzothiophene 2,4-pentadienoic acid derivatives having selective activity for retinoid X (RXR) receptors” (Allergan, Inc., priority 2002, dated 2004).

Assay [1] concerns the target T1, RARα (Homo sapiens, UniProt P10276).
T1 sequence (P10276 1-462): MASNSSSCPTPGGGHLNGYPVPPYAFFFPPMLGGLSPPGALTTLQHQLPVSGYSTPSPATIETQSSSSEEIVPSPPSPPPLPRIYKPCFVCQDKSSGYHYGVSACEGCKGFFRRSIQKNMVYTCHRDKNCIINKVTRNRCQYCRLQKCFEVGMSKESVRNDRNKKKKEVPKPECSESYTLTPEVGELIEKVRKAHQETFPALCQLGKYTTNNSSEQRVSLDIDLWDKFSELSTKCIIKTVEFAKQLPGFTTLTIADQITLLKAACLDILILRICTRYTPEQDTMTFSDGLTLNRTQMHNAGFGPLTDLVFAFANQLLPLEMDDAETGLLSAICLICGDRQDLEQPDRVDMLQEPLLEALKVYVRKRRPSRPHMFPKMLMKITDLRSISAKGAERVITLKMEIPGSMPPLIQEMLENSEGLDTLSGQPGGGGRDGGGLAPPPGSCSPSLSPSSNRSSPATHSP
Briefly: ligand binding assay, RARα. As to conditions: second entry of cell, read-out: RAR Bind. Ki (nM) α. The source says: (§1) A holoreceptor transactivation assay and a ligand binding assay which measure the antagonist/agonist like activity of the compounds of the invention, or their ability to bind to the several retinoid receptor subtypes, respectively, are described in published PCT Application No. WO WO93/11755 (particularly on pages 30-33 and 37-41) published on Jun. 24, 1993, the specification of which is also incorporated herein by reference. A detailed experimental procedure for holoreceptor transactivations has been described by Heyman et al. Cell 68, 397-406, (1992); Allegretto et al. J. Biol. Chem. 268, 26625-26633, and Mangelsdorf et al. The Retinoids: Biology, Chemistry and Medicine, pp 319-349, Raven Press Ltd., New York, which are expressly incorporated herein by reference. The results obtained in this assay are expressed in EC50 numbers, as they are also in the chimeric receptor transactivation assay. The results of ligand binding assay are expressed in Kd numbers. (See Cheng et al. Biochemical Pharmacology Vol. 22 pp 3099-3108, expressly incorporated herein by reference.)

The target of assay [2] is T2, RXRα (Homo sapiens, UniProt P19793).
T2 construct: the only RXRα plasmid printed
T2 sequence (P19793 227-462 limits assumed): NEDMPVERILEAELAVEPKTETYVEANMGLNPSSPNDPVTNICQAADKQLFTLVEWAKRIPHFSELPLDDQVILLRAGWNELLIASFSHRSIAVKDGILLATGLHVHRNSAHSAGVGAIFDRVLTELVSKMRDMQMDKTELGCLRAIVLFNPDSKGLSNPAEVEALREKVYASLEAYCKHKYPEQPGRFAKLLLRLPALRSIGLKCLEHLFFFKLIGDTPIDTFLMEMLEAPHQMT
Briefly: receptor transactivation assay, RXRα. Type of assay: cell-based. The settings on record: first entry of cell, read-out: RXR Trans. EC50 (nM) α.
Description: as §1

In assay [3] the target is T3, RXRα (Homo sapiens, UniProt P19793).
T3 sequence (P19793 1-462): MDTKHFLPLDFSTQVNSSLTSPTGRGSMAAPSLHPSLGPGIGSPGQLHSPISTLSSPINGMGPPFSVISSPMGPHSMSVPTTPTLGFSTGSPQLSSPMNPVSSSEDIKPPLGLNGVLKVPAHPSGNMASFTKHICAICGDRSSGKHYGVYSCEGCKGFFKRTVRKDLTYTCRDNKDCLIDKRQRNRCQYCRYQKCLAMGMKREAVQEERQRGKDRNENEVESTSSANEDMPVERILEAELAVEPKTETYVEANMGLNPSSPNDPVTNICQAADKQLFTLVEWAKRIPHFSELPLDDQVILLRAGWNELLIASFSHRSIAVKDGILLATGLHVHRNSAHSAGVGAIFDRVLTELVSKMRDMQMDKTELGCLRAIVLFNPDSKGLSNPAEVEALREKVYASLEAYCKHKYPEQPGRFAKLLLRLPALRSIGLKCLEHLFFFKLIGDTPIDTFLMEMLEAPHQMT
Briefly: ligand binding assay, RXRα. As to conditions: last entry of cell, read-out: RXR Bind Ki (nM) α.
Description: as §1

The target of assay [4] is T4, RXRγ (UniProt P28705).
T4 sequence (P28705 1-463): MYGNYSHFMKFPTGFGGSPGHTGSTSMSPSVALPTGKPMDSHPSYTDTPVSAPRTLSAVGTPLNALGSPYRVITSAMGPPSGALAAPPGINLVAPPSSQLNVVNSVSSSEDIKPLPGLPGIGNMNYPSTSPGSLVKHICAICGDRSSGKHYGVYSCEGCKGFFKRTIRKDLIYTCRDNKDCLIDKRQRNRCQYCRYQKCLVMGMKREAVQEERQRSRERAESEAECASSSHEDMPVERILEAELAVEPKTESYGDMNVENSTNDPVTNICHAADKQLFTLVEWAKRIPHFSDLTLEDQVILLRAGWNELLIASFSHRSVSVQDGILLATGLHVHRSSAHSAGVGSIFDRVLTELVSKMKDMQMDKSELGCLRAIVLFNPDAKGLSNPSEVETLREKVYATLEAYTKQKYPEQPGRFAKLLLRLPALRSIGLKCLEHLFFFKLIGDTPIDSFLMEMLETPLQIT
The assay can be described thus: ligand binding assay, RXRγ. On the set-up: other: RXRγ; last entry of cell. The settings on record: last entry of cell, read-out: RXR Bind Ki (nM) γ.
Description: as §1

For assay [5], the target named is T5, RXRβ (UniProt P28704).
T5 sequence (P28704 1-520): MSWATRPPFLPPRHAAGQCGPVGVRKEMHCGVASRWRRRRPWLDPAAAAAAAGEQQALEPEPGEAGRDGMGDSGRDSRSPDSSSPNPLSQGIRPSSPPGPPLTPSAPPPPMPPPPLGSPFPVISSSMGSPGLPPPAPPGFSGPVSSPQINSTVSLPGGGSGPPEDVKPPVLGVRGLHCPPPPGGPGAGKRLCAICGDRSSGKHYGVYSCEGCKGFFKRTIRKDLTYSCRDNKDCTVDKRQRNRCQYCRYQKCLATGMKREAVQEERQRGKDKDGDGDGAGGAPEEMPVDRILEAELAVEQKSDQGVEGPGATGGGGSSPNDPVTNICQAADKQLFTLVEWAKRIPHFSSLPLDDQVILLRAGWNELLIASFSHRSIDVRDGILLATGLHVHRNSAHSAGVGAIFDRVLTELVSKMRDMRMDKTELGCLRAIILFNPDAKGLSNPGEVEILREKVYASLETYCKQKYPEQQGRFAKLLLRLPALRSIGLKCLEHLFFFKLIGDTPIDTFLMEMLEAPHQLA
The assay can be described thus: receptor transactivation assay, RXRβ. Further details: RXR Trans; other: RXRβ; first entry of cell. The settings on record: for EC50: first entry of cell, read-out: RXR Trans. EC50 (nM) β; for RXR Trans. β, number in parentheses after EC50: parenthesised number, not defined in the patent. Type of assay: cell-based.
Description: as §1

`CC(/C=C/[C@@H]1C[C@]1(C)c1cc(C(C)(C)C)c2c(c1)C(C)(C)CO2)=C\C(=O)O` [Compound 10, (6S,7S)-7-[5-(3,3-Dimethyl-7-t-butyl-2,3-dihydro-benzofuranyl)]-6,7-methano-3-methyl-octa-2E,4E-dienoic acid]: the Ki in assay [1] was found to be 11000 nM; in assay [3] it was 0.8 nM; in assay [4] it was 1.3 nM. The results for the EC50 in assay [2] and in assay [5] were 0.55 nM and 12 nM, respectively. In addition, in assay [5], the “RXR Trans. β, number in parentheses after EC50” value (“RXR Trans. β, number” below) is listed as 90.

For `CC(/C=C/[C@@H]1C[C@]1(C)c1cc(Br)c2c(c1)C(C)(C)CO2)=C\C(=O)O` [Compound 20, (6S,7S)-7-[5-(7-Bromo-3,3-dimethyl-2,3-dihydro-benzofuranyl)]-6,7-methano-3-methyl-octa-2E,4E-dienoic Acid], the Ki in assay [1] is more than 10000 nM; in assay [3], 7.1 nM; in assay [4] it was 40 nM. The concentration giving a half-maximal response (EC50) in assay [2] stood at 2.4 nM; in assay [5], 12 nM. The “RXR Trans. β, number” value in assay [5] turned out to be 108.

For `CCc1cc([C@@]2(C)C[C@H]2/C=C/C(C)=C/C(=O)O)cc2c1OCC2(C)C` [Compound 6], the inhibitory constant (Ki) in assay [1] is more than 30000 nM; in assay [3], 0.72 nM; in assay [4], 3.2 nM. Also, the EC50 in assay [2] was 0.3 nM; in assay [5], 2.8 nM. Also, the “RXR Trans. β, number” value in assay [5] is reported as 75.

For `CCCCC(O)CCc1cc([C@@]2(C)C[C@H]2/C=C/C(C)=C/C(=O)O)cc2c1OCC2(C)C` (stereo partly drawn) [Compound 38, (E)-3-((E)-2-{(1S,2S)-2-[7-(3-Hydroxy-heptyl)-3,3-dimethyl-2,3-dihydro-benzofuran-5-yl]-2-methyl-cyclopropyl}-vinyl)-but-2-enoic acid], the figures for the inhibition constant (Ki) in assay [1], in assay [3] and in assay [4] were more than 10000 nM, 306 nM and 283 nM, respectively. The EC50 was 1950 nM in assay [2] and 1360 nM in assay [5].

Take `CC(/C=C/[C@@H]1C[C@]1(C)c1cc(-c2ccccc2)c2c(c1)C(C)(C)CO2)=C\C(=O)O` [Compound 22, 6S,7S)-7-[5-(3,3-Dimethyl-7-phenyl-2,3-dihydro-benzofuranyl)1-6,7-methano-3-methyl-octa-2E,4E-dienoic acid]: the Ki in assay [1] was more than 10000 nM; in assay [3], 2.3 nM; in assay [4], 6.2 nM. Moreover, the EC50 in assay [2] is 8.3 nM; in assay [5], 28.4 nM. In addition, the “RXR Trans. β, number” value in assay [5] turned out to be 75.

On to `CCCCC(=O)CCc1cc([C@@]2(C)C[C@H]2/C=C/C(C)=C/C(=O)O)cc2c1OCC2(C)C` [Compound 40], for which the Ki worked out at 11000 nM in assay [1], 41 nM in assay [3] and 70 nM in assay [4]. Also, the figures for the EC50 in assay [2] and in assay [5] were 330 nM and 2040 nM, respectively. Moreover, in assay [5], the “RXR Trans. β, number” value was 103.

With `COc1ccc(-c2cc([C@@]3(C)C[C@H]3/C=C/C(C)=C/C(=O)O)cc3c2OCC3(C)C)cc1` [Compound 32, (E)-3-((E)-2-{(1S,2S)-2-[7-(4-Methoxy-phenyl)-3,3-dimethyl-2,3-dihydro-benzofuran-5-yl]-2-methyl-cyclopropyl}-vinyl)-but-2-enoic acid], the figures for the Ki in assay [1], in assay [3] and in assay [4] were 29000 nM, 66 nM and 227 nM, respectively. Also, the EC50 in assay [2] is 581 nM; in assay [5], more than 1000 nM.

Take `CC(/C=C/[C@@H]1C[C@]1(C)c1cc(-c2ccccc2C)c2c(c1)C(C)(C)CO2)=C\C(=O)O` [Compound 26, 5-[(1S,2S)-2-(3,3-Dimethyl-7-o-tolyl-2,3-dihydro-benzofuran-5-yl)-2-methyl-cyclopropyl]-3-methyl-penta-2E,4E-dienoic acid]: the inhibitory constant (Ki) in assay [1] was more than 10000 nM; in assay [3], 1.2 nM; in assay [4], 6.1 nM. In addition, the EC50 came to 0.2 nM in assay [2] and 0.65 nM in assay [5]. In assay [5], the “RXR Trans. β, number” value came to 99.

With `CC(/C=C/[C@@H]1C[C@]1(C)c1ccc2c(c1)C(C)(C)CO2)=C\C(=O)O` [Compound 2, (6S,7S)-7-[5-(3,3-Dimethyl-2,3-dihydro-benzofuranyl)]-6.7-methano-3-methyl-octa-2E,4E-dienoic Acid], the Ki is more than 10000 nM in assay [1], 7.8 nM in assay [3] and 35 nM in assay [4]. The EC50 is 1.1 nM in assay [2] and 9.8 nM in assay [5]. In addition, the “RXR Trans. β, number” value in assay [5] stood at 106.

Take `CC(/C=C/[C@@H]1C[C@]1(C)c1cc(C)c2c(c1)C(C)(C)CO2)=C\C(=O)O` [Compound 4, (6S,7S)-7-[5-(3,3,7-Trimethyl-2,3-dihydro-benzofuranyl)]-6,7-methano-3-methyl-octa-2E,4E-dienoic acid]: the values for the Ki in assay [1], in assay [3] and in assay [4] were more than 10000 nM, 6.3 nM and 9.9 nM, respectively. For the same compound, the EC50 amounted to 2.9 nM in assay [2] and 21 nM in assay [5]. The “RXR Trans. β, number” value in assay [5] was determined as 108.
